The values below come from patent US20200354331A1, “ICARIIN DERIVATIVES” (H. LEE MOFFITT CANCER CENTER AND RESEARCH INSTITUTE, INC., priority 2014, published 2020).

The test system of experiment [1] is Gr-1+CD11b+ MDSCs. Description: Circulating Gr-1+CD11b+ MDSC in spleens of 4T1 tumor-bearing mice (flow cytometry). Type of experiment: in vivo, BALB/c mice. The following applies: 100 mg/kg i.p. three times weekly, vehicle 50.28%. As to the method: FIG. 1 depicts the effects of ICA or ICT on the differentiation of MDSC. MDSC were isolated from spleens of 4T1 tumor-bearing mice. The maturation markers indicated were used to evaluate the differentiation and accumulation of MDSC in tumor bearing mice. Cell phenotype was evaluated by flow cytometry. One of the most striking features of ICA and ICT is their anti-tumorigenic ability in vivo. Seven days post-infection 1 cm diameter 4T1 tumors from 5 mice were established in BALB/c mice. Mice were treated with 100 mg/kg of ICA, ICT or vehicle (i.p.) three times weekly and tumor size (mean and SD) was monitored every 2 to 3 days. The percentages of double-positive Gr-1+CD11b′ MDSCs were determined for spleens of five mice per group. Cell phenotype was evaluated by flow cytometry. […] ICA or ICT on the differentiation of MDSC.
(In general: In flow cytometry, cells or beads pass a laser one at a time.)

In experiment [2] the test system is U937. Briefly: IC50 / toxicity in cells. The format is cell-based. The following applies: Homo sapiens, U-937.
Experiment [3] has as its system SIGLEC3. Description: SIGLEC3/CD33 expression on PBMC (Q-PCR, flow cytometry). Type of experiment: cell-based, human. The following applies: healthy PBMC, 48 hours; for SIGLEC3 mRNA and protein expression: 1 μM (Q-PCR). As to the method: FIG. 4 depicts the down-regulation of the RNA expression of SIGLEC3 on PBMCs due to ICA and ICT. Healthy PBMC were cultured for 48 hours with 1 μM of DMSO, ICA or ICT and the expression of SIGLEC3 was measured by Q-PCR and analyzed by the AACt method. Error bars indicate SEM.
FIG. 5 depicts the effect of ICT on the expression of SIGLEC3 and SIGLEC5 on PBMC. PBMC from healthy donors were treated for 48 hours with DMSO or ICT and stained extra-cellularly with SIGLEC3-PE and SIGLEC5/14-APC antibodies (BD biosciences).
SIGLEC3 is highly expressed in MDSCs isolated from patients with AML (FIG. 6a). […] Specifically, healthy PBMC were cultured for 48 hours with 1 μM of DMSO, ICA or ICT and the expression of SIGLEC3 was measured by Q-PCR and analyzed by the MCt method. Also, PBMC from healthy donors were treated for 48 hours with DMSO or ICT and stained extra-cellularly with SIGLEC3-PE and SIGLEC5/14-APC antibodies (BD biosciences). S100A9 can ligate with SIGLEC3, denoting the presence of an uncharacterized pathway that could be linked to the identification of specific strategies targeting the regulation of MDSC activation.
Healthy PBMC were cultured for 48 hours with […] of the PDE5 inhibitor ICT and the expression of SIGLEC3 measured by the DDCt method. The experimental control is PBMC treated with DMSO and the internal control was GAPDH. Error bars indicate the SEM of three separate donors/experiments.

Experiment [4] deals with T1, PP2A (Homo sapiens, UniProt P67775).
T1 construct: endogenous in cells; host or cells: human PBMC
Description: PP2A activity in PBMC lysates, in vitro phosphatase assay kit. As to conditions: 48 hours, 1 μM. Type of experiment: cell-based. As to the method:
FIG. 9 depicts the effect of ICA and ICT on the activity of PP2A. Human PBMC were cultured for 48 hours with media, DMSO, 1 μM of ICA or ICT. The cell lysates were used to analyze PP2A activity using a commercial in vitro phosphatase assay kit (Millipore). Error bars represent the SEM of three separate experiments.
To understand if there is a link correlating S100A9/SIGLEC3 and PDE5 activation, SJCRH30 cells were transfected with either vector, S100A9 or SIGLEC 3. Seventy two hours post-transfection cells were lysed and assessed by Western Blot for either PDE5 or its phosphorylated counterpart. […] This represents a new pathway of MDSC activation that can be specifically targeted by ICA, ICT, and their derivatives disclosed herein.

Experiment [5] relates to NK cells and lymphokine-activated killer cells. As to conditions: 0.1 to 1.0 microgram/ml; tumor patients and healthy donors; cited from earlier work.
Experiment [6] deals with 4T1. Description: IC50 of ICT in cell lines. The format is cell-based. The following applies: Mus musculus.
The subject of experiment [7] is K562. Description: IC50 of ICT in cell lines. The format is cell-based. The following applies: Homo sapiens.
The test system of experiment [8] is Raji. Briefly: IC50 of ICT in cell lines. As to conditions: Homo sapiens. Type of experiment: cell-based.
Experiment [9] concerns MCF-7. Briefly: IC50 of ICT in cell lines. The format is cell-based. As to conditions: Homo sapiens, MCF7.
The subject of experiment [10] is B16. Description: Apoptosis rates of ICT in cell lines. Type of experiment: cell-based.
In experiment [11] the test system is K562. Briefly: Apoptosis rates of ICT in cell lines. The format is cell-based.
The test system of experiment [12] is Raji. Briefly: Apoptosis rates of ICT in cell lines. The format is cell-based.
The subject of experiment [13] is MCF-7. Description: Apoptosis rates of ICT in cell lines. Type of experiment: cell-based.
Experiment [14] relates to Bone marrow. Briefly: Apoptosis rates of ICT in cell lines. Type of experiment: cell-based.
Experiment [15] has as its system PBMC. Description: Apoptosis rates of ICT in cell lines. The format is cell-based.
In experiment [16] the test system is IL-10, TGFb, TNFa, ARG2 and NOS2. Description: Expression of suppressive factors in PBMC (Q-PCR). The format is cell-based. As to conditions: healthy PBMC, 48 hours, 20 μM. The protocol: Healthy PBMC were cultured for 48 hours with 20 μM the gene expression of suppressive factors measured by the DDCt method. The experimental control is PBMC treated with DMSO and the internal control was GAPDH. Error bars indicate the SEM of three separate donors/experiments.

The test system of experiment [17] is IL-10 and TGFb. Briefly: Expression of IL-10 and TGFb on LPS-treated PBMC (Q-PCR). Type of experiment: cell-based. As to conditions: 48 hours, 20 μM. As to the method:
The relative expression of IL-10 and TGFb by Q-PCR are shown in FIGS. 19A and 19B, respectively. Healthy PBMC were cultured for 48 hours with 20 μM ICT and the gene expression measured by the DDCt method. The experimental control is PBMC treated with DMSO for 48 hours and the internal control was GAPDH. Error bars indicate the SEM of three separate donors/experiments.

The subject of experiment [18] is CD33 and iNOS. Briefly: Expression of CD33 and iNOS on MDS-BM (flow cytometry, Q-PCR). Type of experiment: cell-based. The arrangement: concentration or dose not given beside the values. As to conditions: 48 hours, 20 ICT.

By IC50 is commonly meant the midpoint of a concentration-inhibition curve.

Like-named read-outs stand apart in the source and are kept apart here.

T1 sequence (P67775 whole entry): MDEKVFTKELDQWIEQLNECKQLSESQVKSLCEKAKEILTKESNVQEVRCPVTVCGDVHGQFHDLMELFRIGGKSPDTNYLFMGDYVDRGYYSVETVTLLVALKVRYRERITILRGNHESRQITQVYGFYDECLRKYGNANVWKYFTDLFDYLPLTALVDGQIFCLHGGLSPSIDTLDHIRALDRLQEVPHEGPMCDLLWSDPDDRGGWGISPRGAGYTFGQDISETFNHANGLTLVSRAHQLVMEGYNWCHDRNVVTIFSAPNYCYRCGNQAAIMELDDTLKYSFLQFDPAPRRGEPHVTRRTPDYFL

For `COc1ccc(-c2oc3c(CC=C(C)C)c(O[C@@H]4O[C@H](CO)[C@@H](O)[C@H](O)[C@H]4O)cc(O)c3c(=O)c2O[C@@H]2O[C@@H](C)[C@H](O)[C@@H](O)[C@H]2O)cc1` [ICA, Icariin], in experiment [1], the “percent of circulating MDSC” value turned out to be 33.35%. The molecule further came in with a half-inhibitory concentration (IC50) in experiment [2] of over 100 µM. Moreover, in experiment [3], the “SIGLEC3 mRNA and protein expression” value is “down-regulating SIGLEC3 at both the mRNA and protein expression levels”. In addition, in experiment [4], the “phosphatase activity of PP2A” value is “up-regulate the phosphatase activity of PP2A in vitro”. The “NK cell activity and LAK activity” value in experiment [5] was “increase NK cell activity and lymphokine-activated killer cell (LAK) activity”.
`COc1ccc(-c2oc3c(CCC(C)(C)O)c(O)cc(O)c3c(=O)c2O)cc1` [ICT, 3,5,7-trihydroxy-4′-methoxy-8-(3-hydroxy-3-methylbutyl)-flavone]: the “percent of circulating MDSC” value in experiment [1] is listed as 26.97%. Further, the IC50 in experiment [6] was 6.7 µM; in [7], 50.5 µM; in experiment [8], 25.6 µM; in experiment [9], 23.2 µM; in experiment [2] (U937, read-out: IC50), over 100 µM. Also, the Apoptosis rates turned out to be 2.5% in experiment [10] (B16, 5 μM); 3.8% in experiment [10] (B16, 10 μM); 3.5% in [10] (B16, 20 μM); 5.5% in experiment [11] (K562, 5 μM); 6.7% in experiment [11] (K562, 10 μM); 7.8% in [11] (K562, 20 μM). Further, the Apoptosis rates in [12] (5 μM) was 9.1%; in experiment [12] (10 μM), 9.2%; in experiment [12] (20 μM) it was 10.0%; in experiment [13] (MCF-7, 5 μM), 3.9%; in experiment [13] (MCF-7, 10 μM) it was 4.1%; in experiment [13] (MCF-7, 20 μM), 6.1%. For the same molecule, the Apoptosis rates in experiment [14] (5 μM) was determined as 2.7%; in experiment [14] (10 μM), 4.3%; in experiment [14] (20 μM) it was 4.8%; in experiment [15] (5 μM), 4.6%; in experiment [15] (10 μM), 5.5%; in [15] (20 μM), 6.9%. For the same molecule, the “SIGLEC3 mRNA and protein expression” value in experiment [3] was “down-regulating SIGLEC3 at both the mRNA and protein expression levels”. The “expression of CD33 on PBMC” value in [3] (20 μM) is listed as “down-regulate the expression of CD33 on PBMC”. Besides, the “expression of suppressive factors in PBMC” value in experiment [16] is “down-regulate the expression of suppressive factors in PBMC”. Besides, the “expression of IL-10 and TGFb on LPS-treated PBMC” value in experiment [17] was “down-regulate the expression of the suppressive cytokine IL-10 and TGFb on LPS-treated PBMC”. Besides, in experiment [18], the “expression of CD33 and iNOS on MDS-BM” value is “down-regulate the expression of CD33 and iNOS on MDS-BM”. Further, in experiment [4], the “phosphatase activity of PP2A” value is “up-regulate the phosphatase activity of PP2A in vitro”.
